In patent US11643670B2, “Methods of enhancing chromosomal homologous recombination” (Massachusetts Institute of Technology, priority 2018, dated 2023):

How the values were obtained:
maternal Chd2 locus = assay: Donor-free interchromosomal homologous recombination (ICHR) in IVF-derived Chd2^R1684H/+ embryos; type: cell-based, mouse
Method: tracrRNA, crRNAs, and ssODNs were synthesized by Integrated DNA Technologies (TABLE 1). All injection mixtures were prepared in a final volume of 50 μL according to the following methodology: Using RNase-free water, reagents, and consumables, crRNA (final concentration 0.61 μM), tracrRNA (final concentration 0.61 μM), and ultrapure Tris-HCl, pH 7.39 (final concentration 10 mM, ThermoFisher) were mixed and incubated at 95° C. for 5 minutes. The mixtures were cooled to room temperature for 10 minutes on the benchtop, and then, EnGen Cas9-NLS S. pyogenes (New England Biolabs) was added to a final concentration of 30 ng/μL. The mixtures were incubated at 37° C. for 15 minutes before adding any remaining components: ssODN (final concentration 3 ng/μL or 30 ng/μL), RAD51 (Creative Biomart, final concentration 10 ng/μL). Injection mixtures were stored on ice and briefly heated to 37° C. prior to injection. For experiments utilizing RS-1, embryos were cultured in KSOM-AA (EMD Millipore MR-121-D) with […] RS-1 (Sigma) dissolved in DMSO or DMSO (Sigma, 1:1000) for 24 hours, washed, and cultured in EmbryoMax FHM HEPES Buffered Medium (Sigma) until collection for genotyping.
For experiments using wildtype recombinant proteins, the following proteins were used: RAD51 (Creative Biomart RAD51-134H), USP1/WDR48 (Creative Biomart USP1&WDR48-1067H), BCCIP (Origene TP303061), XRCC1 (TP304952), XRCC4 (Origene TP312684), DMC1 (Origene TP318311). For experiments using mutant RAD51, custom RAD51 preparations were produced by Creative Biomart according to their standard protocol for producing the wildtype RAD51 used in all other experiments. Mutant DNA sequences used for cloning are described in TABLE 2. All RAD51 mutants were modeled in human RAD51 transcript variant 4 (NCBI accession NM_001164269), as this is the transcript variant of the wildtype RAD51-134H protein used in all other experiments.
In vitro fertilization was performed using FERTIUP® Mouse Preincubation Medium and CARD MEDIA (Kyudo Company) according to the manufacturer's protocol. Non-virgin Chd2^R1684H/R1684H males that were >8 weeks old were used as sperm donors. Following IVF, embryos were cultured for 8 hours and then injected using the PNI protocol described below.
For all experiments except those described in FIG. 6, the male pronucleus was injected. Injections performed for the CPI portion of FIG. 6 were targeted to the cytoplasm. All microinjections were performed using a Narishige Micromanipulator, Nikon Eclipse TE2000-S microscope, and Eppendorf 5242 microinjector. Individual zygotes were injected with 1-2 pL of injection mixture using an “automatic” injection mode set according to needle size and adjusted for clear increase in pronuclear volume. Following injections, cells were cultured in KSOM-AA until collection for genotyping. For experiments giving rise to F0 animals, embryos were surgically implanted into pseudopregnant CD-1 females (Charles River Laboratories, Strain Code 022) 24-hours post-injection and allowed to develop normally until natural birth.
Embryos were collected at morula-to-blastocyst stage in 4 μL nuclease-free water. After collection, 4 μL of 2× embryo digestion buffer was added to each sample (final concentrations: 125 μg/mL proteinase K, 100 mM Tris-HCl pH 8.0, 100 mM KCl, 0.02% gelatin, 0.45% Tween-20, 60 μg/mL yeast tRNA) and embryos were lysed for 1 hour at 56° C. Proteinase K was inactivated via incubation at 95° C. for 10 minutes and DNA was stored at −20° C. until use.
Chd2^R1684H genotyping was performed via a two-step, nested approach. Except for experiments described in FIGS. 3A-3G, all 8 μL of embryo DNA were used as input for the initial, long round of PCR. Genotyping of mouse pups and adult animals was performed using 2 μL of purified tail DNA. For all embryo genotyping, reactions mixtures were set up in a UV-sterilized laminar flow hood using sterile reagents and filter tips to avoid contamination. […]

Cas9 = target: T1, Cas9 (Streptococcus pyogenes serotype M1, UniProt Q99ZW2); assay: In vitro Cas9 digestion assay; type: biochemical, S. pyogenes; details: 10 ng/μL protein co-incubated, PCR amplimer of the Chd2^R1684H locus, 37° C. 1 hour
T1 construct: NLS (nuclear localization signal); purchased New England Biolabs
Method: Wildtype or Chd2^R1684H/R1684H genomic DNA was used as input for PCR using the conditions described above and the primers specified in FIGS. 10A-10D and FIG. 12. After confirmation of a single band via gel electrophoresis, the PCR reactions were purified using the DNA Clean & Concentrator kit (Zymo) according to the manufacturer's instructions. crRNA and tracrRNA were diluted 1 μM in nuclease-free Duplex Buffer (IDT) and incubated at 95° C. for 5 minutes before being allowed to cool to room temperature on the bench. Digestion mixtures were made in separate tubes by combining nuclease-free water, 10× Cas9 Nuclease Reaction Buffer (final concentration 1×, New England Biolabs), 1 μL of the cooled crRNA/tracrRNA duplex, and, if necessary, 1 μL of EnGen Cas9 NLS, S. pyogenes (New England Biolabs). These mixtures were heated to 37° C. for 10 minutes before adding 250 ng PCR product and, if necessary, RAD51 G151D (10 ng/μL final concentration, custom-produced by Creative Biomart) or BCCIP (10 ng/μL final concentration, Origene TP303061). Digestion was performed at 37° C. for 1 hour, Cas9 was denatured at 95° C., 6× Purple Gel Loading Dye (New England Biolabs) was added to a final concentration of 1×, and the samples were allowed to passively cool to room temperature. […]

[1] = co-injected with Cas9/crRNA/tracrRNA, no donor
[2] = compared to embryos injected with wildtype RAD51

T1 sequence (Q99ZW2 whole entry): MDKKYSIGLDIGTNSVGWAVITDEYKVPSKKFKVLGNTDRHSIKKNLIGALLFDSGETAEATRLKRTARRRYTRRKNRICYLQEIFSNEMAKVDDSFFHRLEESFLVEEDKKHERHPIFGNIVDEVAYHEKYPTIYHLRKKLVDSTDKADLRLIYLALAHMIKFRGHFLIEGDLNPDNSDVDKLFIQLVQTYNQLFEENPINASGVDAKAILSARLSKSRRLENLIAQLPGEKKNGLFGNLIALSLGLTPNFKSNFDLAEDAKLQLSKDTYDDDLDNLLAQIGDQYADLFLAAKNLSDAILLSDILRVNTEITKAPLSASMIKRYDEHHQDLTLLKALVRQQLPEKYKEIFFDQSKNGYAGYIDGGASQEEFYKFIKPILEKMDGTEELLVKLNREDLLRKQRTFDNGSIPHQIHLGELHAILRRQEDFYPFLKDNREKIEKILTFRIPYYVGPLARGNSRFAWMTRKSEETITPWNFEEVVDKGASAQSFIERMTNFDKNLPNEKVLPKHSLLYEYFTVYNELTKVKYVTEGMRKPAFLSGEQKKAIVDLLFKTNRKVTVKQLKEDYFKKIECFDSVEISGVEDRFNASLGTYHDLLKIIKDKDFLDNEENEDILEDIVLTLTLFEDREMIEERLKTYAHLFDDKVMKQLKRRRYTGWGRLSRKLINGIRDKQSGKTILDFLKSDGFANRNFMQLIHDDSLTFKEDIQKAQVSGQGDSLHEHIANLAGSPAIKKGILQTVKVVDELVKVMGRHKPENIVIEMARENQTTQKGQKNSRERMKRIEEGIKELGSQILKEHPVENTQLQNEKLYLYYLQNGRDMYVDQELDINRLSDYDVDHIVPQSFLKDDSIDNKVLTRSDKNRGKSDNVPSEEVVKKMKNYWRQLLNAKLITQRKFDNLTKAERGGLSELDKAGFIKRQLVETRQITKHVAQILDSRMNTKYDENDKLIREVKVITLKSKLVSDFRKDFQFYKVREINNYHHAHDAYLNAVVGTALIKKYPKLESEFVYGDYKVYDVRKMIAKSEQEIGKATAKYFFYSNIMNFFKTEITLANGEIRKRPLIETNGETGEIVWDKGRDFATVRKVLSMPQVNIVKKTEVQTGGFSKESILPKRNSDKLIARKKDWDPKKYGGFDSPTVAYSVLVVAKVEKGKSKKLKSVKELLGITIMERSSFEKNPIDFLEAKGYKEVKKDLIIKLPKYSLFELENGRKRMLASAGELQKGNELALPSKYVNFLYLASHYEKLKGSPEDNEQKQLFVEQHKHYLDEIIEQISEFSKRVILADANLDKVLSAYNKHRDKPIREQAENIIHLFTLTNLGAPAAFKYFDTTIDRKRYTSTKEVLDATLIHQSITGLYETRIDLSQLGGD

Substance | efficiency of ICHR stimulation (maternal Chd2 locus) | embryos with mosaic ICHR that were mosaic with an indel (maternal Chd2 locus) | indel-to-ICHR ratio (level) (maternal Chd2 locus) | ICHR rate compared with baseline (Cas9-only embryos) (maternal Chd2 locus; [1]) | edited embryos showing ICHR (maternal Chd2 locus; [1]) | indel-to-ICHR ratio (maternal Chd2 locus; compared to control embryos) | overall indel rate (maternal Chd2 locus; compared to control embryos) | indel-to-ICHR ratio (maternal Chd2 locus; [2]) | overall indel rate (maternal Chd2 locus; [2]) | effect on mosaicism in embryos exhibiting ICHR (maternal Chd2 locus; compared to enhancer-free embryos) | direct inhibition of Cas9 nuclease activity (Cas9)
BCCIP: recombinant BRCA2-interacting protein BCCIP (Origene TP303061) | ~100% | 1/14 | near zero | significantly stronger effect on ICHR rates than USP1/WDR48 | 95% | drastic decrease | drastic decrease | significant decreases | significant decreases | strong effect on mosaicism | not due to direct inhibition of Cas9 activity
G151D: recombinant RAD51 gain-of-function mutant with increased strand exchange activity, SEQ ID NO: 8 | – | – | – | – | – | – | – | – | – | – | did not observe any direct inhibition of Cas9 activity
